Values after ≈ are worked out from the molar mass of the structure shown. Peptide text beside a SMILES is read from it.
Tests used:
[1] = test system: MRSA T144 and E. coli B2 established biofilms; assay: Treatment of established biofilms; assay type: cell-based; details: 128 μg/mL LI14, 2 h
Protocol: In MHB medium, a mid-logarithmic growth-phase culture was diluted to 10^6 CFUs/ml. A 96-well flat bottom plate was filled with 100 μL of this bacterial suspension per well, which was cultured at 37 °C for 36 h to create mature biofilms. […] Plates were sonicated for 10 min after incubation to remove adhering bacteria, and the number of live bacteria was counted microbiologically.

MRSA T144 [2] = assay: Galleria mellonella infection model; assay type: in vivo; details: MRSA T144 infected G. mellonella; 50 mg/kg of LI14 at 1 h after infection; 7 days; n = 8
Protocol: (§1) Galleria mellonella larvae (supplied by Huiyude Biotech Company, Tianjin, China) were separated into six groups (n = 8 biologically independent animals per group) and infection models by injecting MRSA T144 and E. coli B2 cultures, respectively (10 µL, 1.0 × 10^5 CFUs per larvae) into the right posterior gastropoda[42],[48]. The infected larvae were treated by giving LI14 peptide (10, 20, 50 mg/kg), ampicillin/rifampicin (10 mg/kg) or a mixture of LI14 with ampicillin/rifampicin (10 + 10 mg/kg) in the left posterior gastropoda after 1 h infection, with the PBS injection group serving as a control treatment. Within 7 days, survival rates of Galleria mellonella larvae were inspected and recorded.

E. coli B2 [3] = assay: Galleria mellonella infection model; assay type: in vivo; details: E. coli B2 infected G. mellonella; 50 mg/kg of LI14 at 1 h after infection; 7 days; n = 8
Protocol: as §1

E. faecium 5F-10 = assay: microbe, parasite or virus in culture; assay type: cell-based, Enterococcus faecium; details: 5F-10
Outline: (§2)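 Broth microdilution per CLSI 2021 guidelines. Exponential-phase bacteria were diluted 1:1000 into MHB, and 1.5 × 10^6 CFUs/mL suspension was mixed with serially varied peptide concentrations to determine MIC.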

[4] = test system: K. pneumoniae D120 (mcr-8); assay: microbe, parasite or virus in culture; assay type: cell-based, Klebsiella pneumoniae; details: D120 (mcr-8)
Outline: as §2

[5] = test system: K. pneumoniae ATCC 700603; assay: microbe, parasite or virus in culture; assay type: cell-based, Klebsiella pneumoniae; details: ATCC 700603
Outline: as §2

E. coli C3 (blaNDM-1) = assay: microbe, parasite or virus in culture; assay type: cell-based, Escherichia coli; details: C3 (blaNDM-1)
Outline: as §2

E. coli G92 (mcr-1) = assay: microbe, parasite or virus in culture; assay type: cell-based, Escherichia coli; details: G92 (mcr-1)
Outline: as §2

E. coli CP131 (mcr-3) = assay: microbe, parasite or virus in culture; assay type: cell-based, Escherichia coli; details: CP131 (mcr-3)
Outline: as §2

E. coli B3-1 (tet(X4)) = assay: microbe, parasite or virus in culture; assay type: cell-based, Escherichia coli; details: B3-1 (tet(X4))
Outline: as §2

E. coli G6 (blaNDM-5) = assay: microbe, parasite or virus in culture; assay type: cell-based, Escherichia coli; details: G6 (blaNDM-5)
Outline: as §2

E. coli 1F28 (tet(X4)) = assay: microbe, parasite or virus in culture; assay type: cell-based, Escherichia coli; details: 1F28 (tet(X4))
Outline: as §2

MRSA T144 persisters = assay: Bactericidal activity against persisters; assay type: cell-based, Staphylococcus aureus; details: within 2 h
Protocol: Briefly, the bacteria suspensions after washing were exposed to 50-fold MIC concentrations of vancomycin and tigecycline, respectively, and co-incubation for 4 h to obtain persister cells. […] Subsequently, the primary CFUs/mL were calculated.

[6] = test system: S. aureus ATCC 29213, MRSA T144, E. coli ATCC 25922, E. coli B2; assay: Time-killing assay; assay type: cell-based; details: MHB
Protocol: Bacteria from the exponential phase were diluted into MHB at 1:1,000, and bacteria suspensions (~10^5 CFUs/mL for Gram-positive bacteria, ~10^6 CFUs/mL for Gram-negative bacteria) were mixed with various concentrations of LI14 peptide and incubated at 37 °C for 0.5, 1, 2, 4, and 12 h, respectively. At intervals, samples were serially diluted ten-fold and plated on MHA plates. The amount of primary CFUs/mL was determined after overnight incubation of bacterial colonies.

MRSA 1530 = assay: microbe, parasite or virus in culture; assay type: cell-based, Staphylococcus aureus; details: 1530
Outline: as §2

MRSA T144 [7] = assay: Neutropenic mouse thigh infection model; assay type: in vivo, CD-1 mice; details: 48 h; for Reduction in CFUs in thigh compared with vehicles: n = 6
Protocol: (§3) Female CD-1 mice (n = 6 biologically independent animals per group) were first given cyclophosphamide (two consecutive injections of 150 and 100 mg kg^−1 at 4 and 1 day before infection) to construct neutropenia models. The mice’s right thighs were then injected with 100 μL MRSA T144 or E. coli B2 suspensions (10^5 CFUs per mouse). Post-infection of 1 h, 100 μL LI14 peptide (10 or 20 mg/kg), ampicillin/rifampicin (20 mg/kg) or a combination of LI14 with ampicillin/ rifampicin (10 + 20 mg/kg) were given by intraperitoneal injection. All mice were euthanized 48 h after drug administration, and right thigh muscle tissue was removed aseptically, homogenized, serially diluted, and plated on MHA to qualify bacterial loads after overnight incubation at 37 °C.

E. coli B2 [8] = assay: Neutropenic mouse thigh infection model; assay type: in vivo, CD-1 mice; details: 48 h; for Reduction in CFUs in thigh compared with vehicles: n = 6
Protocol: as §3

With CC[C@H](C)[C@H](NC(=O)[C@H](CCCNC(=N)N)NC(=O)[C@H](CS)NC(=O)[C@H](CC(C)C)NC(=O)[C@H](CCCCN)NC(=O)[C@H](CCCCN)NC(=O)[C@H](CC(C)C)NC(=O)[C@@H](NC(=O)[C@H](CCCNC(=N)N)NC(=O)[C@H](CS)NC(=O)[C@H](CC(C)C)NC(=O)[C@H](CCCCN)NC(=O)[C@H](CCCCN)NC(=O)[C@@H](N)CC(C)C)[C@@H](C)CC)C(N)=O [LI14] (H-LKKLCRILKKLCRI-NH2) the “Eradication of established biofilms” value [1] was “almost eradicated all established biofilms”, the “Survival rate of larvae” value (MRSA T144 [2]) was 100% and the “Survival rate of larvae” value (E. coli B2 [3]) was 75%. For the same compound, the MIC (E. faecium 5F-10) was 64 µg/mL (≈ 37.1 µM), the MIC [4] was 32 µg/mL (≈ 18.5 µM) and the MIC [5] was 32 µg/mL (≈ 18.5 µM). It also gave an MIC (E. coli C3 (blaNDM-1)) of 4 µg/mL (≈ 2.32 µM), an MIC (E. coli G92 (mcr-1)) of 8 µg/mL (≈ 4.63 µM) and an MIC (E. coli CP131 (mcr-3)) of 4 µg/mL (≈ 2.32 µM). The MIC (E. coli B3-1 (tet(X4))) was 8 µg/mL (≈ 4.63 µM), the MIC (E. coli G6 (blaNDM-5)) was 4 µg/mL (≈ 2.32 µM) and the MIC (E. coli 1F28 (tet(X4))) was 8 µg/mL (≈ 4.63 µM). For the same compound, the “Clearance rate against persisters” value (MRSA T144 persisters) was “above 99%”, the “Killing of the tested strains at 12 h” value ([6]; 8 μg/mL LI14, three tested strains, except for MRSA T144) was “completely eliminate” and the “Time to eliminate all E. coli strains” value ([6]; 32 μg/mL LI14, ~10^6 CFUs/mL, 37 °C) was ≤ 0.5 h. For the same compound, the MIC (MRSA 1530) was 64 µg/mL (≈ 37.1 µM), the “Bacterial load in thigh” value (MRSA T144 [7]; LI14 10 mg/kg i.p., animal 1) was 6.18 Log10CFUs/thigh and the “Bacterial load in thigh” value (MRSA T144 [7]; LI14 10 mg/kg i.p., animal 2) was 6.30 Log10CFUs/thigh. For the same compound, the “Bacterial load in thigh” value (MRSA T144 [7]; LI14 10 mg/kg i.p., animal 3) was 5.92 Log10CFUs/thigh, the “Bacterial load in thigh” value (MRSA T144 [7]; LI14 10 mg/kg i.p., animal 4) was 5.83 Log10CFUs/thigh and the “Bacterial load in thigh” value (MRSA T144 [7]; LI14 10 mg/kg i.p., animal 5) was 7.15 Log10CFUs/thigh. The “Bacterial load in thigh” value (MRSA T144 [7]; LI14 10 mg/kg i.p., animal 6) was 7.28 Log10CFUs/thigh, the “Reduction in CFUs in thigh compared with vehicles” value (“Reduction in CFUs in thigh” below) (MRSA T144 [7]; LI14 10 mg/kg i.p.) was ~ 2 log10 and the “Bacterial load in thigh” value (MRSA T144 [7]; LI14 20 mg/kg i.p., animal 1) was 4.32 Log10CFUs/thigh. The “Bacterial load in thigh” value (MRSA T144 [7]; LI14 20 mg/kg i.p., animal 2) was 4.36 Log10CFUs/thigh, the “Bacterial load in thigh” value (MRSA T144 [7]; LI14 20 mg/kg i.p., animal 3) was 4.77 Log10CFUs/thigh and the “Bacterial load in thigh” value (MRSA T144 [7]; LI14 20 mg/kg i.p., animal 4) was 4.61 Log10CFUs/thigh. The “Bacterial load in thigh” value (MRSA T144 [7]; LI14 20 mg/kg i.p., animal 5) was 5.45 Log10CFUs/thigh, the “Bacterial load in thigh” value (MRSA T144 [7]; LI14 20 mg/kg i.p., animal 6) was 5.51 Log10CFUs/thigh and the “Reduction in CFUs in thigh” value (MRSA T144 [7]; LI14 20 mg/kg i.p.) was 4 log10. For the same compound, the “Bacterial load in thigh” value (E. coli B2 [8]; LI14 10 mg/kg i.p., animal 1) was 5.99 Log10CFUs/thigh, the “Bacterial load in thigh” value (E. coli B2 [8]; LI14 10 mg/kg i.p., animal 2) was 5.91 Log10CFUs/thigh and the “Bacterial load in thigh” value (E. coli B2 [8]; LI14 10 mg/kg i.p., animal 3) was 6.58 Log10CFUs/thigh. The “Bacterial load in thigh” value (E. coli B2 [8]; LI14 10 mg/kg i.p., animal 4) was 6.66 Log10CFUs/thigh, the “Bacterial load in thigh” value (E. coli B2 [8]; LI14 10 mg/kg i.p., animal 5) was 7.36 Log10CFUs/thigh and the “Bacterial load in thigh” value (E. coli B2 [8]; LI14 10 mg/kg i.p., animal 6) was 7.31 Log10CFUs/thigh. For the same compound, the “Reduction in CFUs in thigh” value (E. coli B2 [8]; LI14 10 mg/kg i.p.) was ~ 2 log10, the “Bacterial load in thigh” value (E. coli B2 [8]; LI14 20 mg/kg i.p., animal 1) was 4.93 Log10CFUs/thigh and the “Bacterial load in thigh” value (E. coli B2 [8]; LI14 20 mg/kg i.p., animal 2) was 4.99 Log10CFUs/thigh. The “Bacterial load in thigh” value (E. coli B2 [8]; LI14 20 mg/kg i.p., animal 3) was 4.71 Log10CFUs/thigh, the “Bacterial load in thigh” value (E. coli B2 [8]; LI14 20 mg/kg i.p., animal 4) was 4.79 Log10CFUs/thigh and the “Bacterial load in thigh” value (E. coli B2 [8]; LI14 20 mg/kg i.p., animal 5) was 5.69 Log10CFUs/thigh. The “Bacterial load in thigh” value (E. coli B2 [8]; LI14 20 mg/kg i.p., animal 6) was 5.66 Log10CFUs/thigh and the “Reduction in CFUs in thigh” value (E. coli B2 [8]; LI14 20 mg/kg i.p.) was 4 log10.
